In patent US12404269B2, “Aminoquinazolinone and aminoisoquinolinone derivatives and application thereof” (ZHEJIANG UNIVERSITY, priority 2018, dated 2025):

Legend:
SW48 (PIK3CA mut) = assay: Tumor cell proliferation, CCK8 method, SW48; assay type: cell-based; conditions: Homo sapiens, SW48, read-out: SW48 (PIK3CA mut) proliferation IC50
Method: (§1) The IC50 value was calculated using Graphpad Prism V5.0 software.

KPL4 (PIK3CA mut) = assay: Tumor cell proliferation, CCK8 method, KPL4; assay type: cell-based; conditions: KPL4, read-out: KPL4 (PIK3CA mut) proliferation IC50
Method: as §1

MCF7 (PIK3CA mut) = assay: Tumor cell proliferation, CCK8 method, MCF7; assay type: cell-based, human; conditions: Homo sapiens, MCF7, read-out: MCF7 (PIK3CA mut) proliferation IC50
Method: as §1

[1] = background; cited from earlier work
ZR-75-1 (PTEN loss) = assay: Tumor cell proliferation, CCK8 method, ZR-75-1; assay type: cell-based; conditions: Homo sapiens; CCK8, ZR-75-1
Method: as §1

[2] = Pharmacokinetic determination in SD rats, tail vein injection; assay type: in vivo; conditions: rat, plasma; male SD rats, intravenous, 1 mg/kg
Method: Healthy SD rats weighing 200±20 g, male, were randomly divided into groups with 6 rats in each group, and were administered by tail vein injection at a dose of 1 mg/kg. The blood sampling time points for pharmacokinetic analysis: 5 min, 15 min, 30 min, 2 h, 4 h, 6 h, 8 h, 24 h, and 48 h after administration. About 0.3 mL of whole blood was collected via the orbit and placed in a heparinized test tube, centrifugalized at 6000 rpm for 10 min to separate the plasma, and store at −80° C. for testing. The plasma concentrations of the each compounds were detected with an Agilent liquid mass spectrometry (LC-MS/MS, Agilent Jet Stream Electrometric spray ion), and the relevant pharmacokinetic parameters were calculated using the WinNonLin 7.0 pharmacokinetic software non-compartment model method.

[3] = CLL patients, background; cited from earlier work

IC50 (SW48 (PIK3CA mut)) | IC50 (KPL4 (PIK3CA mut)) | IC50 (MCF7 (PIK3CA mut)) | IC50 (ZR-75-1 (PTEN loss)) | Vd [2] | clearance [2] | half-life [2] | Structure (SMILES) | volume of distribution [1] | liver side effect [3]
< 20 nM | < 20 nM | < 20 nM | < 20 nM | 33.5 L/kg | 36.7 mL/min/kg | 8.9 h | COc1c(OCCCN2CCOCC2)ccc2c1N=C(NC(=O)c1cnc(N)nc1)N1CCN=C21 [Copanlisib, reference compound] | 32.6 L/kg | 
 |  |  |  |  |  |  | CC[C@H](Nc1ncnc2[nH]cnc12)c1nc2cccc(F)c2c(=O)n1-c1ccccc1 [Idelalisib] |  | elevated transaminase
